Literature values in patent US20060008512A1, “Composition and methods for improved animal performance” (priority 2004, published 2006).
Where two headings read alike, the source gives them in different places.

Legend:
[1] = tested on: porcine thyroid follicles; conditions: cited from earlier work
[2] = tested on: isolated porcine thyroid follicles; conditions: 10 microM of iodide, comparison value; cited from earlier work
[3] = tested on: humans; conditions: daily doses of 100 to 200 mg iodide (from potassium iodide) per person; cited from earlier work
[4] = tested on: male rats; conditions: 200 mg/kg body weight i.v.; blood 30-240 minutes later; cited from earlier work
[5] = serum adjusted to 10 mM sodium salicylate; cited from earlier work
[6] = tested on: broiler breeder hen; conditions: 50 mg/kg feed; days 11 and 12; cited from earlier work
[7] = tested on: male rats; conditions: treated from birth to day 25, cited from earlier work
[8] = tested on: suckling rat pups; conditions: 0.1% solution in mother's drinking water, birth to 24 days, cited from earlier work
[9] = tested on: male Peterson broiler breeder chicks; conditions: 0.1% dietary, cited from earlier work
[10] = tested on: neonatal male rats; conditions: fed from birth to 24 days of age, cited from earlier work
[11] = tested on: cockerels; conditions: fed from 1 day of age; by the 14th week; cited from earlier work
[12] = tested on: young male Nile tilapia fish; conditions: 100 or 150 mg thiouracil/kg diet for 40 days; by 98 days; cited from earlier work
[13] = tested on: dogs; conditions: approximately 5 mg biotin/10 kg body weight for 3 to 5 weeks; cited from earlier work
[14] = tested on: female Sprague-Dawley rats; conditions: fifteen days, cited from earlier work; for Concentration of reverse T3: control 71.7; for Concentration of T3: control 670
[15] = tested on: pigs; conditions: 5 or 8 mg iodide/kg feed for 3 months; cited from earlier work
[16] = tested on: broiler chickens; conditions: finishing-phase T3 administration alone; cited from earlier work
[17] = tested on: growing cockerel and pullet chickens; conditions: 10 mg/kg dietary thyroid hormone; cited from earlier work
[18] = tested on: laying hens; conditions: 20 to 40 mg corticosterone/kg diet; cited from earlier work
[19] = tested on: pigs; conditions: 1,000 mg betaine/kg diet; cited from earlier work
[20] = tested on: White Leghorn hens; conditions: single i.m. injection releasing 60 mcg/kg body weight per day for 30 days, cited from earlier work

## I [iodide]
[1]; 2 and 20 microM iodide
  Rate of apoptosis: 4-6%
[2]
  Inhibitory effect of iodide on thyroid follicle proliferation: 84±2%
[3]
  Protection from radioactive iodide: over 97%

## O=C([O-])c1ccccc1O.[Na+] [sodium salicylate]
[4]
  Decrease in T3: 60%
  Decrease in plasma T4 level: 20%
  Increase in reverse T3: 20%
[5]
  Rise of free dialyzable fraction of T4 in vitro: 125%

## Nicarbazin
[6]
  Hatchability: 31%

## CCCc1cc(=O)[nH]c(=S)[nH]1 [6-propyl-2-thiouracil]
[7]; at 90 days
  Increase of testis weight compared to controls: 40%
[7]; at 135 days
  Increase of testis weight compared to controls: 60%
[7]; at 160 days
  Increase of testis weight compared to controls: 80%
[8]; at 180 days
  Decline of average Leydig cell volume: about 20%
  Increase in number of Leydig cells per testis: 69%
[8]
  Decline in number of hCG-binding sites (LH receptors): 50%
  Reduction of LH-stimulated testosterone production in Leydig cells: 55%
[9]; 8 to 14 or 10 to 16 weeks of age
  Increase in testis weight: about 35%
[9]; 8 to 14 weeks of age, control 20.0 g
  Testis weight: 27.7 g
[9]; 10 to 16 weeks of age, control 20.0 g
  Testis weight: 27.7 g
[9]; fed from 6 to 12 weeks of age
  Increase in mean testis weight at 28 weeks: 96%
[9]; fed from 6 to 12 weeks of age, control 20.0 g
  Mean testis weight at 28 weeks: 39.3 g

## O=c1cc[nH]c(=S)[nH]1 [thiouracil]
[10]; at 100 days
  Increase in testis size: 68%
[10]
  Time for serum T4 and T3 to return to control levels after removal: ≤ 15 days
[11]
  Weights of testes relative to controls: about 10 times
[12]
  Testis weight, gonadosomatic index, Sertoli, germ and Leydig cell numbers higher than control: approximately 100%

## O=C(O)CCCC[C@@H]1SC[C@@H]2NC(=O)N[C@@H]21 [biotin]
[13]
  Cases cured: 60%

## Cc1cc2c(C(C)C)c(O)c(O)c(C=O)c2c(O)c1-c1c(C)cc2c(C(C)C)c(O)c(O)c(C=O)c2c1O [gossypol acetic acid]
[14]; 5 mg/kg/day
  Concentration of reverse T3: 37.20 pg/mL
  Concentration of T3: 430 pg/mL
[14]; 10 mg/kg/day
  Concentration of reverse T3: 24.20 pg/mL
  Concentration of T3: 359 pg/mL

## [I-].[K+] [potassium iodide]
[15]
  Increase of iodine content in adipose tissue: 213%
  Increase of iodine content in fresh muscle: 45%
  Increase of iodine content in heart: 124%
  Increase of iodine content in kidneys: 127%
  Increase of iodine content in liver: 207%

## N[C@@H](Cc1cc(I)c(Oc2ccc(O)c(I)c2)c(I)c1)C(=O)O [T3, 3,5,3′-triiodo-L-thyronine]
[16]
  Reduction in body fat: 17-25%
[17]
  Reduction in body weight gain compared to controls: 55.24%

## C[C@]12C[C@H](O)[C@H]3[C@@H](CCC4=CC(=O)CC[C@@]43C)[C@@H]1CC[C@@H]2C(=O)CO [corticosterone]
[18]
  Laying hens with cessation of egg production: 98%

## C[N+](C)(C)CC(=O)O [betaine]
[19]
  Decrease in feed conversion ratio: 7.93%
  Increase in average daily gain: 13.20%

## CCNC(=O)[C@@H]1CCCN1C(=O)[C@H](CCCNC(=N)N)NC(=O)[C@H](CC(C)C)NC(=O)[C@@H](CC(C)C)NC(=O)[C@H](Cc1ccc(O)cc1)NC(=O)[C@H](CO)NC(=O)[C@H](Cc1c[nH]c2ccccc12)NC(=O)[C@H](Cc1c[nH]cn1)NC(=O)[C@@H]1CCC(=O)N1 [leuprolide acetate]
[20]
  Body weight: no body weight loss
[20]; second week
  Egg production: 3.5%

## CCCCC/C=C\C/C=C\C/C=C\CC(I)C1CCCC(=O)O1 (stereo not drawn) [delta-iodolactone]
[1]; 0.05 to 0.5 microM delta-iodolactone
  Dose lower than iodide for comparable apoptosis: about 40 fold
